Consider three compounds from US20100297025A1, “Novel compositions magnetic particles covered with gem-bisphosphonate derivatives” (Guerbet., priority 2002, published 2010).

As a reminder, the Kd is the equilibrium constant for the complex coming apart. A word on the IC50: it is the concentration that gives 50% inhibition. The low end stands for greater potency in that assay, the high end for weaker potency in that assay.

The target in assay [1] is T1, folate binding protein (FBP) (Bos taurus, UniProt P02702).
T1 construct: purchased Sigma F-0504
T1 sequence (P02702 20-234): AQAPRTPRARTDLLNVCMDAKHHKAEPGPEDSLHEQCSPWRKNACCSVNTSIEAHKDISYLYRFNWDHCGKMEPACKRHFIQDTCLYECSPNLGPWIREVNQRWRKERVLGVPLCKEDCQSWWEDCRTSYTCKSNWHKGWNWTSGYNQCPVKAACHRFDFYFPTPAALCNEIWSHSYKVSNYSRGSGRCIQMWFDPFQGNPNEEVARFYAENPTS
As to the kind of experiment: Affinity for Folate Binding Protein (FBP) by the BiaCore technique. Particulars: immobilized FBP. As to the method:
1/ Assay for Affinity of Example 17 for Folate Binding Protein (FBP) by the BiaCore Technique
PGM buffer: 100 mM KH2PO4, pH 7, 10% glycerol and 4 mM β-mercaptoethanol.
The immobilization of the FBP was carried out at 1 mg/ml in the PGM buffer according to the protocols recommended by BIAcore for coupling to amines. After this, the remaining active carboxylated groups are saturated with 1M of ethanolamine pH=8. The amount of FBP attached corresponds approximately to 1.5 ng/mm^2.
Example 17 was at a concentration of 0.170 mol/L of iron, which corresponds to 1.9×10^−5 mol of particles/L (considering a crystal of 7.5 nm, i.e. 8900 atoms of iron/particle).
The attachment of the folate was followed at four different concentrations (125, 250, 500 and 1000 μM) whereas that of example 17 was carried out at […] and at 10 nM (expressed as mol of particle/L). The association and the dissociation were studied with a flow at 25 μl/min. The association and dissociation phases are 5 minutes.
On the technique in general: SPR reads the build-up and loss of mass on a sensor chip optically.

In another assay the target is T2, human MMP-3 (Homo sapiens, UniProt P08254).
T2 construct: host or cells: sF9 (insect) cell line
T2 sequence (P08254 100-477): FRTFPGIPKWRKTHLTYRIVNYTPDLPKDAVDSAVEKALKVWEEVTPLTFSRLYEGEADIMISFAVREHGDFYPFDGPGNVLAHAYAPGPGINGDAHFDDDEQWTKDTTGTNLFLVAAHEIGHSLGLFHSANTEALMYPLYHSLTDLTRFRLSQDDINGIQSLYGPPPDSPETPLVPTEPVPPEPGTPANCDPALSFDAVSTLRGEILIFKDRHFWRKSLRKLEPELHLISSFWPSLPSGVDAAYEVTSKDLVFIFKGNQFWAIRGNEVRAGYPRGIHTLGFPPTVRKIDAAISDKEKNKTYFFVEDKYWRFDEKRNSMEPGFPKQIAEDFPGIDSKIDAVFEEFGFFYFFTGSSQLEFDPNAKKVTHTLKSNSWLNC
The assay can be described thus: Inhibitory effect on human MMP-3 activity, fluorimetry. The format is biochemical. Particulars: MMP-3, reference product.

A further assay addresses αvβ5 (Homo sapiens, UniProt P06756+P18084). Particulars: cited from earlier work.
The target of the next assay is α5β1 (Homo sapiens, UniProt P05556+P08648). The following applies: cited from earlier work.
Chain of α5β1 (P08648 42-1049): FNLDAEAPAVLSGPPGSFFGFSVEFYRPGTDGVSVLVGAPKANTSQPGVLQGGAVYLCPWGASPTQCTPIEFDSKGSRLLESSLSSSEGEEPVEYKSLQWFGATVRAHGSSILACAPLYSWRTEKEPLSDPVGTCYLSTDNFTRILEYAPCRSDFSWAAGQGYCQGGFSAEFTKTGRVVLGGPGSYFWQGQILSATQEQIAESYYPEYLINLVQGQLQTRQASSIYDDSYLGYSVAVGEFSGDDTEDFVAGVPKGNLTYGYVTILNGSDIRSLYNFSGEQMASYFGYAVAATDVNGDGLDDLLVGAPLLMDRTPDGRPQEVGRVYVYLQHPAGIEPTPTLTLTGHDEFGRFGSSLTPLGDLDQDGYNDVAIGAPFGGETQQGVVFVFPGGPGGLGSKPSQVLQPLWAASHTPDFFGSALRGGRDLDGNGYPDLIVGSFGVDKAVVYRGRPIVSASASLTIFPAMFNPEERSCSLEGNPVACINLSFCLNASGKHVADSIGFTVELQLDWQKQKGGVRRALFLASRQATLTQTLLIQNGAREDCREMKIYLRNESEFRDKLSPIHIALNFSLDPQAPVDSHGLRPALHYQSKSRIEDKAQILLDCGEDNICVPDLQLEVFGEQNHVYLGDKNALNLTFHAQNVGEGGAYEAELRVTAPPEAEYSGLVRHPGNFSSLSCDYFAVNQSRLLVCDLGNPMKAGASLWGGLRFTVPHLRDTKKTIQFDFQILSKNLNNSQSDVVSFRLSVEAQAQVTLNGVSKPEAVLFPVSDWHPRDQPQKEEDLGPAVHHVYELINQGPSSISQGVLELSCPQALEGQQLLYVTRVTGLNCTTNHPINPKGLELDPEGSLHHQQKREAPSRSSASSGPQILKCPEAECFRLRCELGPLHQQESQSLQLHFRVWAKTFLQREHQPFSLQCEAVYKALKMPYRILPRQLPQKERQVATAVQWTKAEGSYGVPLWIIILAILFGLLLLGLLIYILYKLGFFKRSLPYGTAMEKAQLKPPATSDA
Chain of α5β1 (P05556 21-798): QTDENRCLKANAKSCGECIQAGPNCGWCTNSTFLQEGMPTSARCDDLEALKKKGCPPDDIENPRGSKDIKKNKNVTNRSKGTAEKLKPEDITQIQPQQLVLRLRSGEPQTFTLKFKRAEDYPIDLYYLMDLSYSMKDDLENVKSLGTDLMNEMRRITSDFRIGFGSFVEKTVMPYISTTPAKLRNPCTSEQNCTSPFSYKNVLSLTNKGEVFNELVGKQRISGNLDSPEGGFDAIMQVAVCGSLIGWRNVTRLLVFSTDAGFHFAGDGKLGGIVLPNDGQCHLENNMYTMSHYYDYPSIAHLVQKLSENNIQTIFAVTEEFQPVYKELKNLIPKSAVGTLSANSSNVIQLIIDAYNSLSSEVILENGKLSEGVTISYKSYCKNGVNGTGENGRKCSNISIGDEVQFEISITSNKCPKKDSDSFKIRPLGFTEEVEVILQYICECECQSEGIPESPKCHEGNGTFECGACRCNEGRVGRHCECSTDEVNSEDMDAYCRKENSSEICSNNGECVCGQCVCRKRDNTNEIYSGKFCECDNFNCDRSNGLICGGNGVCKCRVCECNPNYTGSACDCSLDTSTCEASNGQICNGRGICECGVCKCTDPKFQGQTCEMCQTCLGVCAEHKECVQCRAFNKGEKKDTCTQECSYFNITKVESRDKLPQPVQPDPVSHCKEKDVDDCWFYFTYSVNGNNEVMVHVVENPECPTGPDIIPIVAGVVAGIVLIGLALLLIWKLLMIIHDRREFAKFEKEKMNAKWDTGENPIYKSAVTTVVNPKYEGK

Chain of αvβ5 (P06756 31-1048): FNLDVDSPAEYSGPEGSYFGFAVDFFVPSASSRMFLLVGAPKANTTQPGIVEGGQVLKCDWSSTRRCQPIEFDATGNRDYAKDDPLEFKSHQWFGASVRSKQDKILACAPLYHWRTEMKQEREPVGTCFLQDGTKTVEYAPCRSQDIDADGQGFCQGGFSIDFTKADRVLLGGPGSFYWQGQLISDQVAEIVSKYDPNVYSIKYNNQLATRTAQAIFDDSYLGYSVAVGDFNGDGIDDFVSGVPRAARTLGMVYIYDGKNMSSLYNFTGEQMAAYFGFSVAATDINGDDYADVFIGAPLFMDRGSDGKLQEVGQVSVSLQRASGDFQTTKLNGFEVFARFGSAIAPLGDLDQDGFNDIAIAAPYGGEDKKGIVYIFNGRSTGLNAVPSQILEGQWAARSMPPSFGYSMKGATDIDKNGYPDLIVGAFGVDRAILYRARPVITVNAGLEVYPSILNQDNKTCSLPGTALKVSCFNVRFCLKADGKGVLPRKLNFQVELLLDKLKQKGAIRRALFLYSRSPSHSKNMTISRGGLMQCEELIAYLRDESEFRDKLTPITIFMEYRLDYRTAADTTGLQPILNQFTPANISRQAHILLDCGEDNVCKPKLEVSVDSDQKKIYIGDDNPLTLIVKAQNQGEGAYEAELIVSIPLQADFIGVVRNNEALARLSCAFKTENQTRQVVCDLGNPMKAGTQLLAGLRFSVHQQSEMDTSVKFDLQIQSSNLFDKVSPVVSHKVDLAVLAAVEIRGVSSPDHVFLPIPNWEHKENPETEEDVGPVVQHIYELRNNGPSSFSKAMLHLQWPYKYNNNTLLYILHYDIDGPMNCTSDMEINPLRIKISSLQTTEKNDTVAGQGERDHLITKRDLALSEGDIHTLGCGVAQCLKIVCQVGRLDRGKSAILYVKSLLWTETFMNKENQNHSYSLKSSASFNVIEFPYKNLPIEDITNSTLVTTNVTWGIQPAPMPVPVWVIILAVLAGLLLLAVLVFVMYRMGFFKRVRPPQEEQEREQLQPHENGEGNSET
Chain of αvβ5 (P18084 24-799): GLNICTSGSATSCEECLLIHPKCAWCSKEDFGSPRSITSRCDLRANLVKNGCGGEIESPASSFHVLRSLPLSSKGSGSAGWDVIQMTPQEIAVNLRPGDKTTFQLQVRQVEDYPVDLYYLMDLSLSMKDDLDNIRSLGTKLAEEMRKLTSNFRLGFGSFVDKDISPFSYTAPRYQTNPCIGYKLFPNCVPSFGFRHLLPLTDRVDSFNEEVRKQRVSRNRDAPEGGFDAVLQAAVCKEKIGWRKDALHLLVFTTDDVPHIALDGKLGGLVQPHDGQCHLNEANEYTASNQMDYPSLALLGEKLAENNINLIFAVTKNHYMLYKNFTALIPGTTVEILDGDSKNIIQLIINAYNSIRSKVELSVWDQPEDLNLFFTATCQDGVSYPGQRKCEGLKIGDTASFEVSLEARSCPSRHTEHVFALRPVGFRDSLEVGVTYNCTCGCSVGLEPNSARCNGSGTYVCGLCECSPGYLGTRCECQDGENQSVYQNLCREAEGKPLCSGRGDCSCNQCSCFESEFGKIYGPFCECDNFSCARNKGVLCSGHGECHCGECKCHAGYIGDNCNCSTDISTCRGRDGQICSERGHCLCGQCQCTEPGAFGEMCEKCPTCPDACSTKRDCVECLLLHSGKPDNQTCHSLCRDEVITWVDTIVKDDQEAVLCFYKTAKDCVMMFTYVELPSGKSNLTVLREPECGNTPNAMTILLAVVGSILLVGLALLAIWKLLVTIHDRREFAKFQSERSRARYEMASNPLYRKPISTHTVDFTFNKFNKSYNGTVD
Experimental for human MMP-3: More precisely, the test product, or the reference product or water, was added to a buffer solution, at pH=6, containing 6 nM of MMP-3. The fluorescence of this medium was evaluated at λex=340 nm and λem=405 nm by means of a plate reader (GeminiXS, Molecular Devices), after preincubation for 30 min at 37° C. (t=0). This measurement at t=0 serves to verify any possible interference of a product with the fluorescent detection. The enzyme reaction was then initiated by adding 10 μm of the substrate NFF-2. After incubation for 90 min at 37° C., the fluorescence was again evaluated under the same conditions as previously (t=90 min). The enzyme activity was then determined by subtracting the signal measured at t=0 from the signal measured at t=90 min.
The final result is expressed as percentage inhibition of the enzyme activity.

As for `Nc1nc2ncc(CNc3ccc(C(=O)N[C@@H](CCC(=O)O)C(=O)O)cc3)nc2c(=O)[nH]1` [Folic acid], in assay [1] (flow 25 μl/min, read-out: Association rate ka), the kon stood at 1000 M⁻¹ s⁻¹. The koff in assay [1] (flow 25 μl/min, read-out: Dissociation rate kd) was 0.0016 s⁻¹. Besides, the Kd in assay [1] (read-out: Affinity constant KD) worked out at 1600 nM.
Turning to `CNC(=O)[C@H](Cc1c[nH]c2ccccc12)NC(=O)[C@@H](CC(=O)NO)CC(C)C` [Ilomastat], the IC50 at human MMP-3 turned out to be 130 nM.
For the compound cyclo(ARGD-Mamb) [XJ735], the “blocking of other integrins” value on αvβ5 and on α5β1 was “does not block” throughout.
